From PubChem BioAssay (NCI)
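Briefly, cells in 96-well plates were exposed to five compound concentrations for 48 h, and endpoints were estimated by linear interpolation. The concentration for 50% growth inhibition is given as GI50. TGI: total growth inhibition.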

Legend:
Assay in all cases: inhibition of tumour cell growth, NCI panel, 48 h
SF-295 CNS = system: SF-295 CNS
HT29 colon = system: HT29 colon
PC-3 prostate = system: PC-3 prostate
UO-31 renal = system: UO-31 renal
OVCAR-5 ovarian = system: OVCAR-5 ovarian
SW-620 colon = system: SW-620 colon
RXF 393 renal = system: RXF 393 renal
ACHN renal = system: ACHN renal
MDA-MB-435 = system: MDA-MB-435
UACC-257 melanoma = system: UACC-257 melanoma
OVCAR-4 ovarian = system: OVCAR-4 ovarian
SR leukemia = system: SR leukemia
HCT-15 colon = system: HCT-15 colon
OVCAR-3 ovarian = system: OVCAR-3 ovarian
NCI/ADR-RES ovarian = system: NCI/ADR-RES ovarian
SN12C renal = system: SN12C renal
HS 578T breast = system: HS 578T breast
KM12 colon = system: KM12 colon
CCRF-CEM leukemia = system: CCRF-CEM leukemia
K-562 leukemia = system: K-562 leukemia
HOP-62 NSCLC = system: HOP-62 NSCLC
LOX IMVI melanoma = system: LOX IMVI melanoma
HOP-92 NSCLC = system: HOP-92 NSCLC
SK-MEL-5 melanoma = system: SK-MEL-5 melanoma
SK-MEL-2 melanoma = system: SK-MEL-2 melanoma
HCC-2998 colon = system: HCC-2998 colon
DU-145 prostate = system: DU-145 prostate
CAKI-1 renal = system: CAKI-1 renal
BT-549 breast = system: BT-549 breast
A498 renal = system: A498 renal
MALME-3M melanoma = system: MALME-3M melanoma
OVCAR-8 ovarian = system: OVCAR-8 ovarian
HL-60(TB) leukemia = system: HL-60(TB) leukemia
TK-10 renal = system: TK-10 renal
EKVX NSCLC = system: EKVX NSCLC
NCI-H226 lung = system: NCI-H226 lung
SK-MEL-28 melanoma = system: SK-MEL-28 melanoma
NCI-H522 lung = system: NCI-H522 lung
COLO 205 colon = system: COLO 205 colon
NCI-H460 lung = system: NCI-H460 lung
SNB-75 CNS = system: SNB-75 CNS
A549 NSCLC = system: A549 NSCLC
SK-OV-3 ovarian = system: SK-OV-3 ovarian
MCF7 breast = system: MCF7 breast
HCT-116 colon = system: HCT-116 colon
SF-539 CNS = system: SF-539 CNS
MDA-MB-231 breast = system: MDA-MB-231 breast
SF-268 CNS = system: SF-268 CNS
M14 melanoma = system: M14 melanoma
SNB-19 CNS = system: SNB-19 CNS
RPMI-8226 leukemia = system: RPMI-8226 leukemia
MOLT-4 leukemia = system: MOLT-4 leukemia
IGROV1 ovarian = system: IGROV1 ovarian
U251 CNS = system: U251 CNS
786-0 renal = system: 786-0 renal
UACC-62 melanoma = system: UACC-62 melanoma

`O=C1Nc2cc(OC(F)(F)F)ccc2Oc2ccc(-c3ccnc(N4CC[C@H](O)C4)c3)cc21` showed a GI50 (SF-295 CNS) of 16.6 nM, a TGI (SF-295 CNS) of 6260 nM and a GI50 (HT29 colon) of 16.3 nM. For the same molecule, the TGI (HT29 colon) was 261 nM, the GI50 (PC-3 prostate) was 19.4 nM and the TGI (PC-3 prostate) was 5480 nM. It also gave a GI50 (UO-31 renal) of 57 nM, a TGI (UO-31 renal) of 5630 nM and a GI50 (OVCAR-5 ovarian) of 49.2 nM. The TGI (OVCAR-5 ovarian) was 6370 nM, the GI50 (SW-620 colon) was less than 17.7 nM and the TGI (SW-620 colon) was 1660 nM. The GI50 (RXF 393 renal) was less than 15.4 nM, the TGI (RXF 393 renal) was 323 nM and the GI50 (ACHN renal) was 55.2 nM. The TGI (ACHN renal) was 5150 nM, the GI50 (MDA-MB-435) was less than 10 nM and the TGI (MDA-MB-435) was less than 11.6 nM. For the same molecule, the GI50 (UACC-257 melanoma) was 3600 nM, the TGI (UACC-257 melanoma) was 9370 nM and the GI50 (OVCAR-4 ovarian) was 1120 nM. For the same molecule, the TGI (OVCAR-4 ovarian) was 3000 nM, the GI50 (SR leukemia) was less than 10 nM and the TGI (SR leukemia) was 2210 nM. For the same molecule, the GI50 (HCT-15 colon) was 10.3 nM, the TGI (HCT-15 colon) was 2860 nM and the GI50 (OVCAR-3 ovarian) was less than 11.7 nM. For the same molecule, the TGI (OVCAR-3 ovarian) was 1330 nM, the GI50 (NCI/ADR-RES ovarian) was 30.6 nM and the TGI (NCI/ADR-RES ovarian) was 6250 nM. It also gave a GI50 (SN12C renal) of 103 nM, a TGI (SN12C renal) of 2680 nM and a GI50 (HS 578T breast) of 23.9 nM. The TGI (HS 578T breast) was 5590 nM, the GI50 (KM12 colon) was less than 15.2 nM and the TGI (KM12 colon) was 2470 nM. For the same molecule, the GI50 (CCRF-CEM leukemia) was 25.1 nM, the TGI (CCRF-CEM leukemia) was 2600 nM and the GI50 (K-562 leukemia) was less than 10 nM. For the same molecule, the TGI (K-562 leukemia) was 1730 nM, the GI50 (HOP-62 NSCLC) was 35.1 nM and the TGI (HOP-62 NSCLC) was 4530 nM. It also gave a GI50 (LOX IMVI melanoma) of 32 nM, a TGI (LOX IMVI melanoma) of 1490 nM and a GI50 (HOP-92 NSCLC) of 1810 nM. The TGI (HOP-92 NSCLC) was 18700 nM, the GI50 (SK-MEL-5 melanoma) was 37.8 nM and the TGI (SK-MEL-5 melanoma) was 487 nM. The GI50 (SK-MEL-2 melanoma) was 32.1 nM, the TGI (SK-MEL-2 melanoma) was 18500 nM and the GI50 (HCC-2998 colon) was 30 nM. It also gave a TGI (HCC-2998 colon) of 1550 nM, a GI50 (DU-145 prostate) of 44.6 nM and a TGI (DU-145 prostate) of 4380 nM. The GI50 (CAKI-1 renal) was less than 10 nM, the TGI (CAKI-1 renal) was 9640 nM and the GI50 (BT-549 breast) was 138 nM. For the same molecule, the TGI (BT-549 breast) was 1690 nM, the GI50 (A498 renal) was 10600 nM and the TGI (A498 renal) was 25900 nM. It also gave a GI50 (MALME-3M melanoma) of 48.9 nM, a TGI (MALME-3M melanoma) of 2090 nM and a GI50 (OVCAR-8 ovarian) of 34.3 nM. The TGI (OVCAR-8 ovarian) was 651 nM, the GI50 (HL-60(TB) leukemia) was less than 10 nM and the TGI (HL-60(TB) leukemia) was 105 nM. It also gave a GI50 (TK-10 renal) of 7650 nM, a TGI (TK-10 renal) of 17300 nM and a GI50 (EKVX NSCLC) of 43.5 nM. It also gave a TGI (EKVX NSCLC) of 20400 nM, a GI50 (NCI-H226 lung) of 280 nM and a TGI (NCI-H226 lung) of 5540 nM. For the same molecule, the GI50 (SK-MEL-28 melanoma) was 1200 nM, the TGI (SK-MEL-28 melanoma) was 2600 nM and the GI50 (NCI-H522 lung) was less than 13.1 nM. For the same molecule, the TGI (NCI-H522 lung) was 42.9 nM, the GI50 (COLO 205 colon) was 18.1 nM and the TGI (COLO 205 colon) was 51.3 nM. For the same molecule, the GI50 (NCI-H460 lung) was less than 12.9 nM, the TGI (NCI-H460 lung) was 1060 nM and the GI50 (SNB-75 CNS) was less than 16.3 nM. For the same molecule, the TGI (SNB-75 CNS) was 1120 nM, the GI50 (A549 NSCLC) was 39.2 nM and the TGI (A549 NSCLC) was 3460 nM. The GI50 (SK-OV-3 ovarian) was 36.7 nM, the TGI (SK-OV-3 ovarian) was 14700 nM and the GI50 (MCF7 breast) was less than 10 nM. For the same molecule, the TGI (MCF7 breast) was 1620 nM, the GI50 (HCT-116 colon) was less than 10 nM and the TGI (HCT-116 colon) was 1190 nM. The GI50 (SF-539 CNS) was 22.7 nM, the TGI (SF-539 CNS) was 1040 nM and the GI50 (MDA-MB-231 breast) was 48 nM. It also gave a TGI (MDA-MB-231 breast) of 1830 nM, a GI50 (SF-268 CNS) of 485 nM and a TGI (SF-268 CNS) of 15800 nM. The GI50 (M14 melanoma) was 11.4 nM, the TGI (M14 melanoma) was 1810 nM and the GI50 (SNB-19 CNS) was 36.6 nM. The TGI (SNB-19 CNS) was 5740 nM, the GI50 (RPMI-8226 leukemia) was 34.9 nM and the TGI (RPMI-8226 leukemia) was 2050 nM. For the same molecule, the GI50 (MOLT-4 leukemia) was 32.7 nM, the TGI (MOLT-4 leukemia) was 2160 nM and the GI50 (IGROV1 ovarian) was 43.1 nM. For the same molecule, the TGI (IGROV1 ovarian) was 8780 nM, the GI50 (U251 CNS) was 35.8 nM and the TGI (U251 CNS) was 1850 nM. It also gave a GI50 (786-0 renal) of 31.6 nM, a TGI (786-0 renal) of 2740 nM and a GI50 (UACC-62 melanoma) of less than 17.3 nM. The TGI (UACC-62 melanoma) was 5240 nM.
